Test results taken from US8772323B2, “Benzoxazole- and tetrahydrobenzoxazole-substituted pyridazinones as GPR119 agonists” (Boehringer Ingelheim International GmbH, priority 2010, dated 2014).

Experiments:
human GPR119 = human GPR119 (Homo sapiens (Human), UniProt Q8TDV5); assay: AlphaScreen cAMP assay in Min-6/hGPR119 cells (GPR119 activation, intracellular cAMP); type: cell-based; conditions: MIN6 cells stably transfected with human GPR119; 45 minutes' incubation at RT; AlphaScreen cAMP Assay Kit
Method in brief: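 MIN6 cells stably expressing human GPR119 plated 10000 cells/well and held 24 h at 37° C. Compounds applied in stimulating buffer, pH 7.4, with 0.5 mM IBMX, 0.1% BSA, 1% DMSO final, for 45 min at RT. Intracellular cAMP read by AlphaScreen.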

human GPR119, sequence (Q8TDV5 whole entry): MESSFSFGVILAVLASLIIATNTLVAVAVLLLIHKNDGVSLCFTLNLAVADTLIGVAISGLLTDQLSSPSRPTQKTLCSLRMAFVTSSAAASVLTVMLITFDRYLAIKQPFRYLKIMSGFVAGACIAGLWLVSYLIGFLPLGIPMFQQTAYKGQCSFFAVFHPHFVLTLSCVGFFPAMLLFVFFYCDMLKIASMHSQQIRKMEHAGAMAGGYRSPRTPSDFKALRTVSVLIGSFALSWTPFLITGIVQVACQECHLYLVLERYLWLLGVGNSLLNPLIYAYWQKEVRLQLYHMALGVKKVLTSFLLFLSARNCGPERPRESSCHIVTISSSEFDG

Row | melting point | EC50 (human GPR119) | Compound
1 | 236 °C | 379 nM | CC1CC(=O)NN=C1c1ccc2nc(-c3ccc(N4CCOCC4)nc3Cl)oc2c1 (stereo not shown) [Example 121, 6-[2-(2-chloro-6-morpholin-4-yl-pyridin-3-yl)-benzoxazol-6-yl]-5-methyl-4,5-dihydro-2H-pyridazin-3-one]
2 | 235 °C | 1130 nM | CC1CC(=O)NN=C1c1ccc2nc(N3CCCCC3)oc2c1 (stereo not shown) [Example 115, 5-methyl-6-(2-piperidin-1-yl-benzoxazol-6-yl)-4,5-dihydro-2H-pyridazin-3-one]
3 | 268 °C | 1340 nM | CC1CC(=O)NN=C1c1ccc2nc(-c3ccc(Cl)nc3Cl)oc2c1 (stereo not shown) [Example 120, 6-[2-(2,6-dichloro-pyridin-3-yl)-benzoxazol-6-yl]-5-methyl-4,5-dihydro-2H-pyridazin-3-one]
4 | 239 °C | 2290 nM | CCOC(=O)N1CCN(c2nc3ccc(C4=NNC(=O)CC4C)cc3o2)CC1 (stereo not shown) [Example 114, ethyl 4-[6-(4-methyl-6-oxo-1,4,5,6-tetrahydro-pyridazin-3-yl)-benzoxazol-2-yl]-piperazine-1-carboxylate]
5 |  | 2410 nM | CCC1CC(=O)NN=C1c1ccc2nc(-c3cccc(OCCN(C)C(C)C)c3)oc2c1 (stereo not shown) [Example 217]
6 |  | 6060 nM | CC[C@H]1CC(=O)NN=C1c1ccc2nc(-c3ccc(OC(C)C)cc3)oc2c1 [Example 192, (S)-5-ethyl-6-[2-(4-isopropoxy-phenyl)-benzoxazol-6-yl]-4,5-dihydro-2H-pyridazin-3-one]
7 |  | 58 nM | CCCN(CCOc1ccc(-c2nc3ccc(C4=NNC(=O)CC4CC)cc3o2)cc1)C(C)C (stereo not shown) [Example 249, 5-ethyl-6-(2-{4-[2-(isopropyl-propyl-amino)-ethoxy]-phenyl}-benzoxazol-6-yl)-4,5-dihydro-2H-pyridazin-3-one]
8 |  | 110 nM | CCC[C@H]1C(=O)NN=C(c2ccc3nc(-c4cccn4C)oc3c2)[C@@H]1C (relative stereo) [Example 252, Trans-5-methyl-6-[2-(1-methyl-1H-pyrrol-2-yl)-benzoxazol-6-yl]-4-propyl-4,5-dihydro-2H-pyridazin-3-one]
9 |  | 205 nM | CCC1CC(=O)NN=C1c1ccc2nc(-c3ccc(OCCN4CCCCCC4)cc3)oc2c1 (stereo not shown) [Example 53, 6-{2-[4-(2-azepan-1-yl-ethoxy)-phenyl]-benzoxazol-6-yl}-5-ethyl-4,5-dihydro-2H-pyridazin-3-one]
10 |  | 116 nM | CCC1CC(=O)NN=C1c1ccc2nc(-c3cccc(OCCN4C(C)(C)CCCC4(C)C)c3)oc2c1 (stereo not shown) [Example 151, 5-ethyl-6-(2-{3-[2-(2,2,6,6-tetramethyl-piperidin-1-yl)-ethoxy]-phenyl}-benzoxazol-6-yl)-4,5-dihydro-2H-pyridazin-3-one]
11 |  | 209 nM | CC[C@@H]1C(c2ccc3nc(-c4ccccc4)oc3c2)=NNC(=O)[C@H]1C (relative stereo) [Example 145, trans-5-ethyl-4-methyl-6-(2-phenyl-benzoxazol-6-yl)-4,5-dihydro-2H-pyridazin-3-one]
12 |  | 329 nM | CCC1CC(=O)NN=C1c1ccc2nc(-c3cccc(O)c3)oc2c1 (stereo not shown) [Example 39, 6-[2-(3-hydroxy-phenyl)-benzoxazol-6-yl]-5-ethyl-4,5-dihydro-2H-pyridazin-3-one]
13 |  | 37 nM | CCC1CC(=O)NN=C1c1ccc2nc(-c3ccc(OCCN(C(C)C)C(C)C)cc3)oc2c1 (stereo not shown) [Example 57, 6-{2-[4-(2-diisopropylamino-ethoxy)-phenyl]-benzoxazol-6-yl}-5-ethyl-4,5-dihydro-2H-pyridazin-3-one]
14 |  | 30 nM | CC[C@@H]1CC(=O)NN=C1c1ccc2nc(-c3ccc(OC(C)C)cc3)oc2c1 [Example 193, (R)-5-ethyl-6-[2-(4-isopropoxy-phenyl)-benzoxazol-6-yl]-4,5-dihydro-2H-pyridazin-3-one]
15 |  | 296 nM | CCC1CC(=O)NN=C1c1ccc2nc(-c3ccc(OC[C@@H]4CCCN4C)cc3)oc2c1 (stereo partly shown) [Example 242, 5-ethyl-6-{2-[4-(1-methyl-S-pyrrolidin-2-yl-methoxy)-phenyl]-benzoxazol-6-yl}-4,5-dihydro-2H-pyridazin-3-one]
16 |  | 567 nM | CCC1CC(=O)NN=C1c1ccc2nc(-c3cccc(OCCN4CCCCCC4)c3)oc2c1 (stereo not shown) [Example 149, 6-{2-[3-(2-azepan-1-yl-ethoxy)-phenyl]-benzoxazol-6-yl}-5-ethyl-4,5-dihydro-2H-pyridazin-3-one]
17 |  | 639 nM | CCC1CC(=O)NN=C1c1ccc2nc(-c3ccc(OCc4cccnc4)cc3)oc2c1 (stereo not shown) [Example 60, 5-ethyl-6-{2-[4-(pyridin-3-ylmethoxy)-phenyl]-benzoxazol-6-yl}-4,5-dihydro-2H-pyridazin-3-one]
18 |  | 97 nM | CCC1CC(=O)NN=C1c1ccc2nc(-c3ccc(OCCN4CCC(C#N)CC4)cc3)oc2c1 (stereo not shown) [Example 163, 1-(2-{4-[6-(4-ethyl-6-oxo-1,4,5,6-tetrahydro-pyridazin-3-yl)-benzoxazol-2-yl]-phenoxy}-ethyl)-piperidin-4-carbonitrile]
19 |  | 1560 nM | CCC1CC(=O)NN=C1c1ccc2nc(-c3cccc(OCCN4CCCCC4)c3)oc2c1 (stereo not shown) [Example 148, 5-ethyl-6-{2-[3-(2-piperidin-1-yl-ethoxy)-phenyl]-benzoxazol-6-yl}-4,5-dihydro-2H-pyridazin-3-one]
20 |  | 316 nM | CCC1CC(=O)NN=C1c1ccc2nc(-c3cccc(OC)c3)oc2c1 (stereo not shown) [Example 102, 5-ethyl-6-[2-(3-methoxy-phenyl)-benzoxazol-6-yl]-4,5-dihydro-2H-pyridazin-3-one]
21 |  | 2030 nM | CCC1CC(=O)NN=C1c1ccc2nc(-c3cccc(OCCN4CCN(C(C)CC)CC4)c3)oc2c1 (stereo not shown) [Example 157, 6-(2-{3-[2-(4-sec-butyl-piperazin-1-yl)-ethoxy]-phenyl}-benzoxazol-6-yl)-5-ethyl-4,5-dihydro-2H-pyridazin-3-one]
22 |  | 4160 nM | O=C1NN=C([C@@H]2CCc3nc(-c4ccccc4)oc3C2)[C@H]2C[C@@H]12 [Example 132, (1R,6S)-5-((R)-2-phenyl-4,5,6,7-tetrahydro-benzoxazol-6-yl)-3,4-diaza-bicyclo[4.1.0]hept-4-en-2-one]
23 |  | 755 nM | CCC[C@@H]1C(=O)NN=C(c2ccc3nc(-c4ccc(OCCCN5CCCCC5)cc4)oc3c2)[C@H]1C (relative stereo) [Example 172, trans-5-methyl-6-{2-[4-(3-piperidin-1-yl-propoxy)-phenyl]-benzoxazol-6-yl}-4-propyl-4,5-dihydro-2H-pyridazin-3-one]
24 |  | 159 nM | CCC1CC(=O)NN=C1c1ccc2nc(-c3ccc(OCCN4CCC(F)CC4)cc3)oc2c1 (stereo not shown) [Example 248, 5-ethyl-6-(2-{4-[2-(4-fluoro-piperidin-1-yl)-ethoxy]-phenyl}-benzoxazol-6-yl)-4,5-dihydro-2H-pyridazin-3-one]
25 |  | 114 nM | CCC1CC(=O)NN=C1c1ccc2nc(-c3ccc(OCCN4CCCCC4)cc3)oc2c1 (stereo not shown) [Example 49, 5-ethyl-6-{2-[4-(2-piperidin-1-yl-ethoxy)-phenyl]-benzoxazol-6-yl}-4,5-dihydro-2H-pyridazin-3-one]
26 |  | 243 nM | O=C1NN=C(c2ccc3nc(-c4ccccc4)oc3c2)C2CC12 (stereo not shown) [Example 5, 5-(2-phenyl-benzoxazol-6-yl)-3,4-diaza-bicyclo[4.1.0]hept-4-en-2-one]
27 |  | 3740 nM | O=C1CCC(c2ccc3nc(N4CCCCC4)oc3c2)=NN1 [Example 118, 6-(2-piperidin-1-yl-benzoxazol-6-yl)-4,5-dihydro-2H-pyridazin-3-one]
